From ChEMBL document CHEMBL1201862, “PubChem BioAssay data set” (2004) come the findings set out here.

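These data come from cells grown in 96-well plates and exposed to compound for 48 hours at five concentrations. Abbreviation: GI50, concentration required for 50% inhibition of growth.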 Active and inactive are the calls of the source. No stated cut-off is given here; in the data, active = GI50 up to about 1.1 µM and inactive = higher. Some results are limits rather than exact numbers.

Test systems include 786-0; EKVX; HCT-116; HCT-15; HOP-62; IGROV-1; M19-MEL; NCI-H226; NCI-H23; OVCAR-8; RXF 393; SK-MEL-2; SK-OV-3; SNB-78; SW-620; RPMI-8226; DMS-114; NCI/ADR-RES; PC-3; T47D.
What all share (test): inhibition of tumour cell growth, NCI panel, 48 h

For the compound `CC1(C)C(=O)CCC(=O)C(C)(C)C2=CC=C(O2)C(C)(C)C(=O)CCC(=O)C(C)(C)C2=CC=C1O2`, the GI50 in the test on 786-0 was > 100 µM (inactive); in the test with EKVX it was > 100 µM (inactive); with HCT-116, > 100 µM (inactive); in the test on HCT-15, more than 100 µM; in the test with HOP-62 it was > 100 µM (inactive); in the test with IGROV-1 it was > 100 µM (inactive). Further, the GI50 in the test on M19-MEL, in the test on NCI-H226, in the test with NCI-H23, with OVCAR-8, in the test on RXF 393 and with SK-MEL-2 was > 100 µM (inactive) each time. Also, the GI50 in the test on SK-OV-3, in the test with SNB-78 and with SW-620 was > 100 µM (inactive) in each case.

Take `C/C(=N\NC(=S)N1CCC(C2CCN(C(=S)N/N=C(\C)c3ccccn3)CC2)CC1)c1ccccn1`: the GI50 is 45.4 µM (inactive) with 786-0; > 100 µM (inactive) in the test on EKVX; 29.2 µM (inactive) with HCT-116; > 100 µM (inactive) in the test on HOP-62; 68.7 µM (inactive) in the test on IGROV-1; > 100 µM (inactive) in the test on M19-MEL. In addition, the GI50 in the test on NCI-H226 is 60.7 µM (inactive); with NCI-H23 it was 59.7 µM (inactive); in the test with OVCAR-8, 46.7 µM (inactive); with RPMI-8226, > 100 µM (inactive); in the test with RXF 393, 71.8 µM (inactive); in the test on SK-OV-3, 38.4 µM (inactive). The GI50 in the test with SNB-78 is 44.3 µM (inactive); in the test with SW-620, > 100 µM (inactive).

`Cc1cccc(C(C)(C)C)c1NC(=O)CCl`: the GI50 in the test on 786-0, with EKVX, in the test with HCT-116, with HOP-62, in the test with IGROV-1 and with M19-MEL was > 100 µM (inactive) each time. In addition, the GI50 in the test on NCI-H226, in the test with NCI-H23, in the test with OVCAR-8, in the test on RXF 393, with SK-MEL-2 and in the test with SK-OV-3 was > 100 µM (inactive) throughout. Further, the GI50 with SNB-78 and with SW-620 was > 100 µM (inactive) throughout.

In the case of `CC(=O)Nc1ccc(C2=N/C(=C\c3ccc(Cl)cc3)C(=O)O2)cc1`, the GI50 in the test on 786-0 was 20.8 µM (inactive); in the test with EKVX it was > 100 µM (inactive); in the test on HCT-116 it was 36 µM (inactive); in the test on HCT-15, 19.9 µM; in the test with HOP-62, > 100 µM (inactive); in the test with IGROV-1 it was > 100 µM (inactive). Besides, the GI50 is 25.5 µM (inactive) in the test with M19-MEL; > 100 µM (inactive) with NCI-H226; 36.4 µM (inactive) with NCI-H23; 32.1 µM (inactive) in the test with OVCAR-8; 40.2 µM (inactive) in the test with RPMI-8226; 53.5 µM (inactive) with RXF 393. Moreover, the GI50 was > 100 µM (inactive) in the test on SK-MEL-2, 30.7 µM (inactive) in the test with SK-OV-3, > 100 µM (inactive) in the test on SNB-78 and 8.91 µM (inactive) in the test on SW-620.

On to `COC(=O)c1cccc2c3ccccc3c3ccccc3c12`, for which the GI50 was 42.8 µM (inactive) in the test with 786-0; 29.4 µM (inactive) in the test on DMS-114; > 100 µM (inactive) in the test with EKVX; 37.8 µM (inactive) with HCT-116; 35.2 µM in the test with HCT-15; > 100 µM (inactive) with HOP-62. For the same compound, the GI50 with IGROV-1 was 62.8 µM (inactive); with M19-MEL, 51.2 µM (inactive); in the test with NCI-H226, > 100 µM (inactive); in the test on NCI-H23, 23.1 µM (inactive); in the test with OVCAR-8, 24.4 µM (inactive); in the test on RXF 393, 24 µM (inactive). Also, the results for the GI50 with SK-MEL-2, in the test on SK-OV-3 and with SW-620 were 24.8 µM (inactive), 37.2 µM (inactive) and 43.5 µM (inactive), respectively.

For `COC(=O)C1=C(C)N(NC(=O)c2ccccc2)C(C)(O)C12CCOC2=O` (stereo not given), the GI50 was 0.195 µM (active) in the test with 786-0; > 100 µM (inactive) with DMS-114; > 100 µM (inactive) in the test with EKVX; > 100 µM (inactive) in the test on HCT-116; more than 100 µM with HCT-15; > 100 µM (inactive) with HOP-62. Further, the GI50 was > 100 µM (inactive) with IGROV-1; > 100 µM (inactive) with NCI-H226; > 100 µM (inactive) in the test with NCI-H23; > 100 µM (inactive) in the test on OVCAR-8; > 100 µM (inactive) in the test on RPMI-8226; 0.608 µM (active) in the test with SK-MEL-2. The GI50 in the test with SK-OV-3, in the test on SNB-78 and in the test on SW-620 was > 100 µM (inactive) in each case.

For `COC(=O)CC1NC(=O)C1C1(C)OCCO1` (stereo not given), the GI50 was > 100 µM (inactive) in the test with 786-0; > 100 µM (inactive) in the test with DMS-114; > 100 µM (inactive) in the test on EKVX; > 100 µM (inactive) in the test on HCT-116; more than 100 µM in the test on HCT-15; > 100 µM (inactive) with HOP-62. The GI50 in the test on IGROV-1, in the test on M19-MEL, in the test with NCI-H226, in the test on NCI-H23, in the test on OVCAR-8 and in the test with RPMI-8226 was > 100 µM (inactive) each time. Further, the GI50 in the test on RXF 393, in the test on SK-MEL-2 and in the test with SW-620 was > 100 µM (inactive) in each case.

Consider `CCc1cccc(C)c1NC(=O)C(=O)CC(=O)c1ccc(Cl)s1`, for which the GI50 in the test with 786-0 is > 100 µM (inactive); in the test with EKVX, > 100 µM (inactive); in the test with HCT-116, > 100 µM (inactive); in the test with HCT-15 it was more than 100 µM; in the test with HOP-62, > 100 µM (inactive); with IGROV-1, > 100 µM (inactive). Moreover, the GI50 in the test with M19-MEL, in the test on NCI-H226, in the test with NCI-H23, in the test with OVCAR-8, with SK-MEL-2 and in the test on SK-OV-3 was > 100 µM (inactive) each time. The GI50 in the test with SNB-78 and in the test with SW-620 was > 100 µM (inactive) each time.

As to `CS(=O)(=O)OC1CCC2(C#N)CCC1C2=O` (stereo not given), the GI50 is 79.6 µM (inactive) with 786-0; > 100 µM (inactive) in the test with EKVX; > 100 µM (inactive) with HCT-116; 12.1 µM with HCT-15; > 100 µM (inactive) with HOP-62; > 100 µM (inactive) with IGROV-1. The GI50 was > 100 µM (inactive) with M19-MEL; > 100 µM (inactive) in the test on NCI-H226; > 100 µM (inactive) with NCI-H23; > 100 µM (inactive) in the test on OVCAR-8; 21.9 µM (inactive) with RPMI-8226; > 100 µM (inactive) in the test with RXF 393. The GI50 in the test with SK-MEL-2, in the test on SK-OV-3 and with SNB-78 was > 100 µM (inactive) each time.

Regarding `COC(=O)C1(NC(=O)C(N)CC(=O)O)C(C)C1C` (stereo not given), the GI50 in the test on 786-0 was > 100 µM (inactive); in the test with EKVX it was > 100 µM (inactive); with HCT-116, > 100 µM (inactive); in the test on HCT-15 it was more than 100 µM; with HOP-62, > 100 µM (inactive); in the test on IGROV-1, > 100 µM (inactive). The GI50 with NCI-H226, with NCI-H23, with NCI/ADR-RES, with OVCAR-8, in the test on PC-3 and with RPMI-8226 was > 100 µM (inactive) each time. The GI50 with RXF 393, with SK-MEL-2, in the test with SK-OV-3, with SW-620 and in the test on T47D was > 100 µM (inactive) in each case.
